Data taken from patent US6762170B1, “2-(purin-9-yl)-tetrahydrofuran-3,4-diol derivatives” (SmithKlineBeecham Corporation, priority 1998, dated 2004).

Legend:
Type in all cases: cell-based
Adenosine 2a receptor = biological target: T1, Adenosine 2a receptor (Homo sapiens, UniProt P29274); assay: Agonist activity against adenosine 2a receptor subtype (CHO cells, cAMP response element/SPAP reporter); conditions: EC50 ratio to NECA; transfected CHO cells, basal cAMP reflected by SPAP
T1 construct: expressed in transfected cells; host or cells: Chinese hamster ovary (CHO) cells, co-transfected with a CRE-SPAP reporter
Summary of the method: (§1)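 CHO cells expressed the human receptor plus a cAMP response element–driven SPAP reporter. Agonism was measured as SPAP change from forskolin-enhanced cAMP for A1 and A3, and from basal cAMP for A2a. EC50 is expressed as a ratio to that of NECA.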

Adenosine 3 receptor = biological target: T2, Adenosine 3 receptor (Homo sapiens, UniProt P0DMS8); assay: Agonist activity against adenosine 3 receptor subtype (CHO cells, forskolin-enhanced cAMP, SPAP reporter); conditions: EC50 ratio to NECA; transfected CHO cells, forskolin-enhanced cAMP reflected by SPAP
T2 construct: expressed in transfected cells; host or cells: Chinese hamster ovary (CHO) cells, co-transfected with a CRE-SPAP reporter
T2 sequence (P0DMS8 1-318): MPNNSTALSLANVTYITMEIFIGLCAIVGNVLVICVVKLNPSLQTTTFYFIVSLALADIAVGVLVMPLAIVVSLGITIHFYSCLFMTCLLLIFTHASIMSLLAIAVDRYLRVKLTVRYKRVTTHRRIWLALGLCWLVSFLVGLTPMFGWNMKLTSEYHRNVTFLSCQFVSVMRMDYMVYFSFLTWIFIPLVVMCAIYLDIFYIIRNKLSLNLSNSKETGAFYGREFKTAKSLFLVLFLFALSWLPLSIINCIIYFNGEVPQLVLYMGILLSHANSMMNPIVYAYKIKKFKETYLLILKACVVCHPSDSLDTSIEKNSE
Summary of the method: as §1

Adenosine 1 receptor = biological target: T3, Adenosine 1 receptor (Homo sapiens, UniProt P30542); assay: Agonist activity against adenosine 1 receptor subtype (CHO cells, forskolin-enhanced cAMP, SPAP reporter); conditions: EC50 ratio to NECA; transfected CHO cells, forskolin-enhanced cAMP reflected by SPAP
T3 construct: expressed in transfected cells; host or cells: Chinese hamster ovary (CHO) cells, co-transfected with a CRE-SPAP reporter
T3 sequence (P30542 1-326): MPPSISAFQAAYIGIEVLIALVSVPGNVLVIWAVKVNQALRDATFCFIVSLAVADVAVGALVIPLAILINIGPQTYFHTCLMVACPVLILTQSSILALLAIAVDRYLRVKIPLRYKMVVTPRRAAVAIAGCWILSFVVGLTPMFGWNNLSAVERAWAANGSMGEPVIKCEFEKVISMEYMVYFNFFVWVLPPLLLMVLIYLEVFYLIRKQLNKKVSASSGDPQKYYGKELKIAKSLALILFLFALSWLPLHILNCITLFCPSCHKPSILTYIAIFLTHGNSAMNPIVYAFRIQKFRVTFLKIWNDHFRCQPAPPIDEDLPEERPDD
Summary of the method: as §1

T1 sequence (P29274 whole entry): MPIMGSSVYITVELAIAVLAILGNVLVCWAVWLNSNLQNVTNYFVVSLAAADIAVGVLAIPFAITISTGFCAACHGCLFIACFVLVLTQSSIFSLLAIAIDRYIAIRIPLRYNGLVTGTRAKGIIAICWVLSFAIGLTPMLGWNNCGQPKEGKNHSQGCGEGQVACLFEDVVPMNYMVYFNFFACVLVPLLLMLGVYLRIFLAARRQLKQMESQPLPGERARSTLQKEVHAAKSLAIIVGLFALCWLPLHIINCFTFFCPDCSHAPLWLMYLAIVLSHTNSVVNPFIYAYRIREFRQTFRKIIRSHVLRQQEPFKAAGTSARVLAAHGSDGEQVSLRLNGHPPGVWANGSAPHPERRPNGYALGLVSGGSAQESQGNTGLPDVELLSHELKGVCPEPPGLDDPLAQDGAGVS

CCc1cc([C@H]2O[C@@H](n3cnc4c(NC(CC)CC)nc(NCCNc5ccccn5)nc43)[C@H](O)[C@@H]2O)on1.O=CO.O=CO [Example 53, (2S,3S,4R,5R)-2-(3-Ethyl-isoxazol-5-yl)-5-{6-(1-ethyl-propylamino)-2-[2-(pyridin-2-ylamino)-ethylamino]-purin-9-yl}-tetrahydro-furan-3,4-diol diformate]
A2a (EC50 values as a ratio of that of NECA) (Adenosine 2a receptor): 2.11 | A3 (EC50 values as a ratio of that of NECA) (Adenosine 3 receptor): >229 | A1 (EC50 values as a ratio of that of NECA) (Adenosine 1 receptor): 128.9

CCC(CC)Nc1nc(NCCN2CCCCC2)nc2c1ncn2[C@@H]1O[C@H](c2cc(C(C)O)no2)[C@@H](O)[C@H]1O.O=CO.O=CO (stereo partly drawn) [Example 54, (2R,3R,4S,5S)-2-[6-(1-Ethyl-propylamino)-2-(2-piperidin-1-yl-ethylamino)-purin-9-yl]-5-[3-(1-hydroxy-ethyl)-isoxazol-5-yl]-tetrahydro-furan-3,4-diol diformate]
A2a (EC50 values as a ratio of that of NECA) (Adenosine 2a receptor): 0.066 | A3 (EC50 values as a ratio of that of NECA) (Adenosine 3 receptor): >350 | A1 (EC50 values as a ratio of that of NECA) (Adenosine 1 receptor): 10.18

CCC(CC)Nc1nc(NCCN2CCCCC2)nc2c1ncn2C1OC(c2cc(C)no2)C(O)C1O.O=CO.O=CO [Example 55, (2R,3R,4S,5S)-2-[6-(1-Ethyl-propylamino)-2-(2-piperidin-1-yl-ethylamino)-purin-9-yl]-5-(3-methyl-isoxazol-5-yl)-tetrahydro-furan-3,4-diol diformate]
A2a (EC50 values as a ratio of that of NECA) (Adenosine 2a receptor): 0.175 | A3 (EC50 values as a ratio of that of NECA) (Adenosine 3 receptor): >353 | A1 (EC50 values as a ratio of that of NECA) (Adenosine 1 receptor): 155.3

CCCc1cc(C2OC(n3cnc4c(NC(CC)CC)nc(NCCN5CCCCC5)nc43)C(O)C2O)on1.O=CO.O=CO [Example 56, (2R,3R,4S,5S)-2-[6-(1-Ethyl-propylamino)-2-(2-piperidin-yl-ethylamino)-purin-9-yl]-5-(3-propyl-isoxazol-5-yl)-tetrahydro-furan-3,4-diol diformate]
A2a (EC50 values as a ratio of that of NECA) (Adenosine 2a receptor): 5.19 | A3 (EC50 values as a ratio of that of NECA) (Adenosine 3 receptor): >525 | A1 (EC50 values as a ratio of that of NECA) (Adenosine 1 receptor): 101.31

CCC(CC)Nc1nc(NCCN2CCCCC2)nc2c1ncn2C1OC(c2cc(CO)no2)C(O)C1O.O=CO.O=CO [Example 57, (2R,3R,4S,5S)-2-[6-(1-Ethyl-propylamino)-2-(2-piperidin-1-yl-ethylamino)-purin-9-yl]-5-(3-hydroxymethyl-isoxazol-5-yl)-tetrahydro-furan-3,4-diol diformate]
A2a (EC50 values as a ratio of that of NECA) (Adenosine 2a receptor): 0.79 | A3 (EC50 values as a ratio of that of NECA) (Adenosine 3 receptor): >525 | A1 (EC50 values as a ratio of that of NECA) (Adenosine 1 receptor): 80.76

CCC(CC)Nc1nc(NCCc2cn(C)cn2)nc2c1ncn2[C@@H]1O[C@H](c2cc(C(C)O)no2)[C@@H](O)[C@H]1O.O=CO.O=CO (stereo partly drawn) [Example 58, (2R,3R,4S,5S)-2-{6-(1-Ethyl-propylamino)-2-[2-(1-methyl-1H-imidazol-4-yl)-ethylamino]-purin-9-yl}-5-[3-(1-hydroxy-ethyl)-isoxazol-5-yl]-tetrahydro-furan-3,4-diol diformate]
A2a (EC50 values as a ratio of that of NECA) (Adenosine 2a receptor): 0.244 | A3 (EC50 values as a ratio of that of NECA) (Adenosine 3 receptor): >525 | A1 (EC50 values as a ratio of that of NECA) (Adenosine 1 receptor): 812.2

CCc1cc(C2OC(n3cnc4c(NC(CO)Cc5ccccc5)nc(NCCNc5ccccn5)nc43)C(O)C2O)on1 [Example 62, (2S,3S,4R,5R)-2-(3-Ethyl-isoxazol-5-yl)-5-{6-(1S-hydroxymethyl-2-phenyl-ethylamino)-2-[2-(pyridin-2-ylamino)-ethylamino]-purin-9-yl}-tetrahydro-furan-3,4-diol diformate]
A2a (EC50 values as a ratio of that of NECA) (Adenosine 2a receptor): 1.03 | A3 (EC50 values as a ratio of that of NECA) (Adenosine 3 receptor): >303 | A1 (EC50 values as a ratio of that of NECA) (Adenosine 1 receptor): 21.37

CCc1cc(C2OC(n3cnc4c(NC(CO)Cc5ccccc5)nc(NCCN5CCCC5)nc43)C(O)C2O)on1 [Example 63, (2S,3S,4R,5R)-2-(3-Ethyl-isoxazol-5-yl)-5-[6-(1S-hydroxymethyl-2-phenyl-ethylamino)-2-(2-pyrrolidin-1-yl-ethylamino)-purin-9-yl]-tetrahydro-furan-3,4-diol diformate]
A2a (EC50 values as a ratio of that of NECA) (Adenosine 2a receptor): 10.57 | A3 (EC50 values as a ratio of that of NECA) (Adenosine 3 receptor): >262 | A1 (EC50 values as a ratio of that of NECA) (Adenosine 1 receptor): 148.43

CCc1cc(C2OC(n3cnc4c(NC(CO)Cc5ccccc5)nc(NCCN)nc43)C(O)C2O)on1 [Example 64, (2R,3R,4S,5S)-2-[2-(2-Amino-ethylamino)-6-(1S-hydroxymethyl-2-phenyl-ethylamino)-purin-9-yl]-5-(3-ethyl-isoxazol-5-yl)-tetrahydro-furan-3,4-diol diformate]
A2a (EC50 values as a ratio of that of NECA) (Adenosine 2a receptor): 16.03 | A3 (EC50 values as a ratio of that of NECA) (Adenosine 3 receptor): >262 | A1 (EC50 values as a ratio of that of NECA) (Adenosine 1 receptor): 44.21

CCC(CC)Nc1nc(NCCN2CCCCC2)nc2c1ncn2C1OC(c2cc(Br)no2)C(O)C1O.O=CO.O=CO [Example 67, (2S,3S,4R,5R)-2-(3-Bromo-isoxazol-5-yl)-5-[6-(1-ethyl-propylamino)-2-(2-piperidin-1-yl-ethylamino)-purin-9-yl]-tetrahydro-furan-3,4-diol diformate]
A2a (EC50 values as a ratio of that of NECA) (Adenosine 2a receptor): 2.59 | A3 (EC50 values as a ratio of that of NECA) (Adenosine 3 receptor): >238 | A1 (EC50 values as a ratio of that of NECA) (Adenosine 1 receptor): 219.1

CCOC(=O)c1cc(C2OC(n3cnc4c(NC(CC)CC)nc(NCCc5cn(C)cn5)nc43)C(O)C2O)on1 (stereo not drawn) [Example 68, 5-(5R-{6-(1-Ethyl-propylamino)-2-[2-(1-methyl-1H-imidazol-4-yl)-ethylamino]-purin-9-yl}-3S,4R-dihydroxy-tetrahydro-furan-2S-yl)-isoxazole-3-carboxylic acid ethyl ester diformate]
A2a (EC50 values as a ratio of that of NECA) (Adenosine 2a receptor): 30.23 | A3 (EC50 values as a ratio of that of NECA) (Adenosine 3 receptor): >113 | A1 (EC50 values as a ratio of that of NECA) (Adenosine 1 receptor): 60.30

CCc1cc(C2OC(n3cnc4c(NC(CO)C(C)C)nc(NCCN5CCCC5)nc43)C(O)C2O)on1 [Example 69, (2S,3S,4R,5R)-2-(3-Ethyl-isoxazol-5-yl)-5-[6-(1S-hydroxymethyl-2-methyl-propylamino)-2-(2-pyrrolidin-1-yl-ethylamino)-purin-9-yl]-tetrahydro-furan-3,4-diol diformate]
A2a (EC50 values as a ratio of that of NECA) (Adenosine 2a receptor): 23.73 | A3 (EC50 values as a ratio of that of NECA) (Adenosine 3 receptor): >180 | A1 (EC50 values as a ratio of that of NECA) (Adenosine 1 receptor): 298.75

CCc1cc(C2OC(n3cnc4c(NC(CO)C(C)C)nc(NCCN5CCCCC5)nc43)C(O)C2O)on1 [Example 70, (2S,3S,4R,5R)-2-(3-Ethyl-isoxazol-5-yl)-5-[6-(1(1S-hydroxymethyl-2-methyl-propylamino)-2-(2-piperidin-1-yl-ethylamino)-purin-9-yl]-tetrahydro-furan-3,4-diol diformate]
A2a (EC50 values as a ratio of that of NECA) (Adenosine 2a receptor): 27.39 | A3 (EC50 values as a ratio of that of NECA) (Adenosine 3 receptor): >184 | A1 (EC50 values as a ratio of that of NECA) (Adenosine 1 receptor): 149.86

CCc1cc(C2OC(n3cnc4c(NC(CO)C(C)C)nc(NCCNc5ccccn5)nc43)C(O)C2O)on1 [Example 71, (2S,3S,4R,5R)-2-(3-Ethyl-isoxazol-5-yl)-5-{6-(1S-hydroxymethyl-2-methyl-propylamino)-2-[2-(pyridin-2-ylamino)-ethylamino]-purin-9-yl}-tetrahydro-furan-3,4-diol diformate]
A2a (EC50 values as a ratio of that of NECA) (Adenosine 2a receptor): 12.75 | A3 (EC50 values as a ratio of that of NECA) (Adenosine 3 receptor): >184 | A1 (EC50 values as a ratio of that of NECA) (Adenosine 1 receptor): 79.51

CCc1cc(C2OC(n3cnc4c(NC(CO)C(C)C)nc(NC(CO)Cc5ccccc5)nc43)C(O)C2O)on1 [Example 72, (2S,3S,4R,5R)-2-(3-Ethyl-isoxazol-5-yl)-5-{6-(1S-hydroxymethyl-2-methyl-propylamino)-2-(1S-hydroxymethyl-2-phenyl-ethylamino)-purin-9-yl}-tetrahydro-furan-3,4-diol diformate]
A2a (EC50 values as a ratio of that of NECA) (Adenosine 2a receptor): 5.39 | A3 (EC50 values as a ratio of that of NECA) (Adenosine 3 receptor): >158 | A1 (EC50 values as a ratio of that of NECA) (Adenosine 1 receptor): 23.79

(2R,3R,4S,5S)-2-[2-Ethylamino-6-(3-iodo-benzylamino)-purin-9-yl]-5-(3-ethyl-isoxazol-5-yl)-tetrahydro-furan-3,4-diol formate [Example 66]
A2a (EC50 values as a ratio of that of NECA) (Adenosine 2a receptor): 8.32 | A3 (EC50 values as a ratio of that of NECA) (Adenosine 3 receptor): >262 | A1 (EC50 values as a ratio of that of NECA) (Adenosine 1 receptor): 189.98

(2R,3R,4S,5S)-2-{6-(1-Ethyl-propylamino)-2-[2-(1-methyl-1H-imidazol-4-yl)-ethylamino]-purin-9-yl}-5-(3-propyl-isoxazol-5-yl)-tetrahydro-furan-3,4-diol diformate [Example 60]
A2a (EC50 values as a ratio of that of NECA) (Adenosine 2a receptor): 4.53 | A3 (EC50 values as a ratio of that of NECA) (Adenosine 3 receptor): ≧248.4 | A1 (EC50 values as a ratio of that of NECA) (Adenosine 1 receptor): 155.86

(2R,3R,4S,5S)-2-{6-(1-Ethyl-propylamino)-2-[2-(1-methyl-1H-imidazol-4-yl)-ethylamino]-purin-9yl}-5-(3-methyl-isoxazol-5-yl)-tetrahydro-furan-3,4-diol diformate [Example 59]
A2a (EC50 values as a ratio of that of NECA) (Adenosine 2a receptor): 0.13 | A3 (EC50 values as a ratio of that of NECA) (Adenosine 3 receptor): >385 | A1 (EC50 values as a ratio of that of NECA) (Adenosine 1 receptor): 194.3
